Experiments:
WEE1 (human) = WEE1 (human) (UniProt P30291); test: KINOMEscan competition binding; details: compound 10.0 µM
RPS6KB1 (human) = RPS6KB1 (human) (UniProt P23443); test: KINOMEscan competition binding; details: compound 10.0 µM
TGFBR1 (human) = TGFBR1 (human) (UniProt P36897); test: KINOMEscan competition binding; details: compound 10.0 µM
TLK1 (human) = TLK1 (human) (UniProt Q9UKI8); test: KINOMEscan competition binding; details: compound 10.0 µM
[1] = tested on: ABL1 (human), P00519 [E255K]; test: KINOMEscan competition binding; details: compound 10.0 µM
MAP3K11 (human) = MAP3K11 (human) (UniProt Q16584); test: KINOMEscan competition binding; details: compound 10.0 µM
ACVR1B (human) = ACVR1B (human) (UniProt P36896); test: KINOMEscan competition binding; details: compound 10.0 µM
PDGFRB (human) = PDGFRB (human) (UniProt P09619); test: KINOMEscan competition binding; details: compound 10.0 µM
SRPK2 (human) = SRPK2 (human) (UniProt P78362); test: KINOMEscan competition binding; details: compound 10.0 µM
BRAF (human) = BRAF (human) (UniProt P15056); test: KINOMEscan competition binding; details: compound 10.0 µM
NEK4 (human) = NEK4 (human) (UniProt P51957); test: KINOMEscan competition binding; details: compound 10.0 µM
AURKA (human) = AURKA (human) (UniProt O14965); test: KINOMEscan competition binding; details: compound 10.0 µM
IKBKB (human) = IKBKB (human) (UniProt O14920); test: KINOMEscan competition binding; details: compound 10.0 µM
PHKG1 (human) = PHKG1 (human) (UniProt Q16816); test: KINOMEscan competition binding; details: compound 10.0 µM
NEK3 (human) = NEK3 (human) (UniProt P51956); test: KINOMEscan competition binding; details: compound 10.0 µM
RET (human) = RET (human) (UniProt P07949); test: KINOMEscan competition binding; details: compound 10.0 µM
TBK1 (human) = TBK1 (human) (UniProt Q9UHD2); test: KINOMEscan competition binding; details: compound 10.0 µM
AKT1 (human) = AKT1 (human) (UniProt P31749); test: KINOMEscan competition binding; details: compound 10.0 µM
DAPK1 (human) = DAPK1 (human) (UniProt P53355); test: KINOMEscan competition binding; details: compound 10.0 µM
[2] = tested on: KIT (human), P10721 [A829P]; test: KINOMEscan competition binding; details: compound 10.0 µM
CSNK1D (human) = CSNK1D (human) (UniProt P48730); test: KINOMEscan competition binding; details: compound 10.0 µM
ALK (human) = ALK (human) (UniProt Q9UM73); test: KINOMEscan competition binding; details: compound 10.0 µM
CDK3 (human) = CDK3 (human) (UniProt Q00526); test: KINOMEscan competition binding; details: compound 10.0 µM
MAP3K15 (human) = MAP3K15 (human) (UniProt Q6ZN16); test: KINOMEscan competition binding; details: compound 10.0 µM
GAK (human) = GAK (human) (UniProt O14976); test: KINOMEscan competition binding; details: compound 10.0 µM
ACVR2A (human) = ACVR2A (human) (UniProt P27037); test: KINOMEscan competition binding; details: compound 10.0 µM
[3] = tested on: KIT (human), P10721 [V559D]; test: KINOMEscan competition binding; details: compound 10.0 µM
TTK (human) = TTK (human) (UniProt P33981); test: KINOMEscan competition binding; details: compound 10.0 µM
EPHA5 (human) = EPHA5 (human) (UniProt P54756); test: KINOMEscan competition binding; details: compound 10.0 µM
RPS6KA1 KD2 (human) = RPS6KA1 KD2 (human) (UniProt Q15418); test: KINOMEscan competition binding; details: compound 10.0 µM
CSNK1E (human) = CSNK1E (human) (UniProt P49674); test: KINOMEscan competition binding; details: compound 10.0 µM
TNK1 (human) = TNK1 (human) (UniProt Q13470); test: KINOMEscan competition binding; details: compound 10.0 µM
EPHA4 (human) = EPHA4 (human) (UniProt P54764); test: KINOMEscan competition binding; details: compound 10.0 µM
MAP3K13 (human) = MAP3K13 (human) (UniProt O43283); test: KINOMEscan competition binding; details: compound 10.0 µM
EPHB4 (human) = EPHB4 (human) (UniProt P54760); test: KINOMEscan competition binding; details: compound 10.0 µM
RPS6KA6 KD1 (human) = RPS6KA6 KD1 (human) (UniProt Q9UK32); test: KINOMEscan competition binding; details: compound 10.0 µM
TYRO3 (human) = TYRO3 (human) (UniProt Q06418); test: KINOMEscan competition binding; details: compound 10.0 µM
TAOK2 (human) = TAOK2 (human) (UniProt Q9UL54); test: KINOMEscan competition binding; details: compound 10.0 µM
NUAK1 (human) = NUAK1 (human) (UniProt O60285); test: KINOMEscan competition binding; details: compound 10.0 µM
PI4KB (human) = PI4KB (human) (UniProt Q9UBF8); test: SelectScreen, TR FRET
PIK3C3 (human) = PIK3C3 (human) (UniProt Q8NEB9); test: SelectScreen, TR FRET
PRKDC (human) = PRKDC (human) (UniProt P78527); test: SelectScreen, TR FRET

Chain of TNK1 (human) (Q13470 whole entry, looked up): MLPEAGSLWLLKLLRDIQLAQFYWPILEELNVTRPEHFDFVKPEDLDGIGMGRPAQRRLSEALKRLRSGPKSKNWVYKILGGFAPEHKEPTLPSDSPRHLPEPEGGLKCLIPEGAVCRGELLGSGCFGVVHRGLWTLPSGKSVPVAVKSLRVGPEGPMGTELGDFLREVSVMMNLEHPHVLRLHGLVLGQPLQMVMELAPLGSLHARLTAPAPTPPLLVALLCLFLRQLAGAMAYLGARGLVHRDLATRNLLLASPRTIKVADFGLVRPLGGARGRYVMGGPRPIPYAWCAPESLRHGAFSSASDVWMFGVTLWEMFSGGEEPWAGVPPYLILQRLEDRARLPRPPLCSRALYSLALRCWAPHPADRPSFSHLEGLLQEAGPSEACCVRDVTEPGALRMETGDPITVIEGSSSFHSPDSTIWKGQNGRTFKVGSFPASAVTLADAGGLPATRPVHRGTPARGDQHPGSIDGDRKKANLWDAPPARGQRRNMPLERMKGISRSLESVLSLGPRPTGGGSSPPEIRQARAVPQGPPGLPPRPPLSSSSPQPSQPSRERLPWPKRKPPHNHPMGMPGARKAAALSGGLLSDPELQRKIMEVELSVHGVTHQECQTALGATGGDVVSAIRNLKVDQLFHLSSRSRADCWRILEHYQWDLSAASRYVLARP
Chain of BRAF (human) (P15056 whole entry, looked up): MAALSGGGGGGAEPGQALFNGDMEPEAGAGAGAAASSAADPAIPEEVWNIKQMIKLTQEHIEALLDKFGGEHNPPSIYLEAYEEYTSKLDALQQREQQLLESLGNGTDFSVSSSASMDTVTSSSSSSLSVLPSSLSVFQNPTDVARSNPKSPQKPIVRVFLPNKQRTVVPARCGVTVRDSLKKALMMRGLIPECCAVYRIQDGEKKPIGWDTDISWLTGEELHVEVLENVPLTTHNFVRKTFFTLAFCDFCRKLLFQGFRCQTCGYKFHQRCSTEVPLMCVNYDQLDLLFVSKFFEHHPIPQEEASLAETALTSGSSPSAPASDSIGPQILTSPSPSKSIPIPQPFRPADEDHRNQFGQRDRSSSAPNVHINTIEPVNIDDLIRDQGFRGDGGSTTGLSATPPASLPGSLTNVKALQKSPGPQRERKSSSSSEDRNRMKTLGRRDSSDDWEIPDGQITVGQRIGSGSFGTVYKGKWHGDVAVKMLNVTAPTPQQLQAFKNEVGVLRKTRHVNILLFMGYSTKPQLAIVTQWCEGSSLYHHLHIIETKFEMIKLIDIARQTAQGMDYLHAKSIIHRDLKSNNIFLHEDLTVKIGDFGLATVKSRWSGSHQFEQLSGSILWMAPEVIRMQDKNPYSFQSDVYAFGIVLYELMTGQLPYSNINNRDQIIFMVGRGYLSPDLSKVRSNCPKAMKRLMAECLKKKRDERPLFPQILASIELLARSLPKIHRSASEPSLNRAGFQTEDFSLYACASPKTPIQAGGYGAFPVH
Chain of MAP3K15 (human) (Q6ZN16 whole entry, looked up): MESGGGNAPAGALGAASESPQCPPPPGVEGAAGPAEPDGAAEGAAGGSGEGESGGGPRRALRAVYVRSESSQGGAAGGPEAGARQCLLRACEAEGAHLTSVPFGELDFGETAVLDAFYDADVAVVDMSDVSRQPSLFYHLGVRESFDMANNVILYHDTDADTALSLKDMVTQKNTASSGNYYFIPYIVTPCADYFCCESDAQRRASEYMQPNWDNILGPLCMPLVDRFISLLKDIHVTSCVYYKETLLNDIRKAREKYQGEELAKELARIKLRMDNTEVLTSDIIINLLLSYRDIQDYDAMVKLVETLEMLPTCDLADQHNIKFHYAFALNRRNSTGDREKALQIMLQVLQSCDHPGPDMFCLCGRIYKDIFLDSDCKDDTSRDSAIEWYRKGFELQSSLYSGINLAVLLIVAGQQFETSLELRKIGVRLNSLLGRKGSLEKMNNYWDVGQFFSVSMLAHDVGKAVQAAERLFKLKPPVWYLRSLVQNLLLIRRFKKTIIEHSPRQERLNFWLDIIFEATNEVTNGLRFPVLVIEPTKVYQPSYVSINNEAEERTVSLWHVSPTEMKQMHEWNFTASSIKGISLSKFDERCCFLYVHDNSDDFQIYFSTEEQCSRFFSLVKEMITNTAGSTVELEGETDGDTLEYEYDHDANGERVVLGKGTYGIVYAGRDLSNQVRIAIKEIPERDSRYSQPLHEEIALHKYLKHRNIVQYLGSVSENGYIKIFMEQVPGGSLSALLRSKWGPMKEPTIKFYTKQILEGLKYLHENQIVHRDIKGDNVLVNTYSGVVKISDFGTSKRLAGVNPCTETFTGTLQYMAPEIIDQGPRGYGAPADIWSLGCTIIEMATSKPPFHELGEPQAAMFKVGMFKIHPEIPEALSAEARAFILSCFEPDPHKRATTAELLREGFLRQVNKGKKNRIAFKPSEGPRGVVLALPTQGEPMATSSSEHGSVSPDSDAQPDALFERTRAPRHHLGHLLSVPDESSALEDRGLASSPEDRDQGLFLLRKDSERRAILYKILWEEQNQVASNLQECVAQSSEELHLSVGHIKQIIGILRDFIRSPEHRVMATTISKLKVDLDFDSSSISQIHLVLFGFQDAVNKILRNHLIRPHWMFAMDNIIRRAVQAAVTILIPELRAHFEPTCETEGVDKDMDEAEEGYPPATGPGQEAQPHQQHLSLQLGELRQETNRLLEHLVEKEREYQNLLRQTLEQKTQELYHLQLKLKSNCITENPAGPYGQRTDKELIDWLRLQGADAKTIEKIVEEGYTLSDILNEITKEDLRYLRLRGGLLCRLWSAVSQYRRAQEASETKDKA
Chain of ALK (human) (Q9UM73 whole entry, looked up): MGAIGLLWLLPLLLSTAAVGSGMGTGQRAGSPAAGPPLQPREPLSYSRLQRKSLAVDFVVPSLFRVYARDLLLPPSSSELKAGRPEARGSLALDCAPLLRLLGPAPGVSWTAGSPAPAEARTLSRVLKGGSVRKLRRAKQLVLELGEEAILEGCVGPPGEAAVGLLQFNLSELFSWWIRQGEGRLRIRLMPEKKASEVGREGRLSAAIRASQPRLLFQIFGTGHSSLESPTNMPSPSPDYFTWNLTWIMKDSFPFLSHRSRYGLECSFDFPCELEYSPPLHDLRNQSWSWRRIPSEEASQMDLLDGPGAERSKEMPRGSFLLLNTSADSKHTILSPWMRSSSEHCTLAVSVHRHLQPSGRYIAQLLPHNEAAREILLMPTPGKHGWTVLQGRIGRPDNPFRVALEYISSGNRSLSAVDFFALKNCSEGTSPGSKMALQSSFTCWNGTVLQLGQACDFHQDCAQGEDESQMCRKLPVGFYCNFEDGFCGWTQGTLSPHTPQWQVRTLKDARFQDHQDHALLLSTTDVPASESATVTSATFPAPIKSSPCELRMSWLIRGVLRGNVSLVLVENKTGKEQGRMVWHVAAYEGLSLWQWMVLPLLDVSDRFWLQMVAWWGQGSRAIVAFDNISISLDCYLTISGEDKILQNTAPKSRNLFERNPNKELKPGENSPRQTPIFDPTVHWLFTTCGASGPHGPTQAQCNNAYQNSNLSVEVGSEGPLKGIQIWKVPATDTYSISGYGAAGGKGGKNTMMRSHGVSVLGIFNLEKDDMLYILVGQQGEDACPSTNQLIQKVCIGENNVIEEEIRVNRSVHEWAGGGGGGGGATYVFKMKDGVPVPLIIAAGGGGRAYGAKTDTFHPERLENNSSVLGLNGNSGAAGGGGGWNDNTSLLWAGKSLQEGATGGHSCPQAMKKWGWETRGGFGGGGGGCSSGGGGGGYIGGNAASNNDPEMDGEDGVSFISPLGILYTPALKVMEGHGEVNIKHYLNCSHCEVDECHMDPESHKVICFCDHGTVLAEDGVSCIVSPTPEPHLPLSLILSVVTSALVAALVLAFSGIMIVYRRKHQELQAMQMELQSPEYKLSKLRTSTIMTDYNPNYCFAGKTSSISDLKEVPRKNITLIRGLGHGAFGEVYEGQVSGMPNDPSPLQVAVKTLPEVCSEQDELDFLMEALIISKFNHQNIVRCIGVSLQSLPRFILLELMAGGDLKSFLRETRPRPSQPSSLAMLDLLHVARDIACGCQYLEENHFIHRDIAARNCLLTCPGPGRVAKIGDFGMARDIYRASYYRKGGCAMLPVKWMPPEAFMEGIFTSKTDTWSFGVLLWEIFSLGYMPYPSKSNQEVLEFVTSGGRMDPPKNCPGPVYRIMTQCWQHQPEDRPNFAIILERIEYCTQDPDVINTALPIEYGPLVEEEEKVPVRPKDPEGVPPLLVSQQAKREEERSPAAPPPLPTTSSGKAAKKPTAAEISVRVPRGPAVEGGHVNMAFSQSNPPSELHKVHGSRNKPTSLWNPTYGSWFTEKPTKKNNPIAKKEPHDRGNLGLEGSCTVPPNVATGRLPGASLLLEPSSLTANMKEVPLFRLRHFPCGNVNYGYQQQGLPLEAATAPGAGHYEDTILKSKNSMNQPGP
Chain of AKT1 (human) (P31749 whole entry, looked up): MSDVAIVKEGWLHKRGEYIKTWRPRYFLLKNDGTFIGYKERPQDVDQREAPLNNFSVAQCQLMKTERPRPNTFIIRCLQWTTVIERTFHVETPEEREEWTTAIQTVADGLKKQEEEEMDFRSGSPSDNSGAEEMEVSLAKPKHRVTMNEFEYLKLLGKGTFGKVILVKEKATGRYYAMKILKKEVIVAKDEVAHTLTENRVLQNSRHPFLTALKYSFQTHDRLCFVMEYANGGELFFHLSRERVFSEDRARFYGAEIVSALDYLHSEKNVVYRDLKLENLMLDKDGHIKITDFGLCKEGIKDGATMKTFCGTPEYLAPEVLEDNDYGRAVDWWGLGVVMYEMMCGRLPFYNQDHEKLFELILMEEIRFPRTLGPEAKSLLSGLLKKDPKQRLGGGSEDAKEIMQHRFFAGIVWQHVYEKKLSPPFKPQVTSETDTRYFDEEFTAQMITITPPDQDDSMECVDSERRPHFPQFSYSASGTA

## Cc1cc([C@@H](C)Nc2ccccc2C(=O)O)c2nc(N3CCOCC3)cc(=O)n2c1
WEE1 (human)
  kinase still bound, per cent of control: 88%
RPS6KB1 (human)
  kinase still bound, per cent of control: 100%
TGFBR1 (human)
  kinase still bound, per cent of control: 100%
TLK1 (human)
  kinase still bound, per cent of control: 100%
[1]
  kinase still bound, per cent of control: 100%
MAP3K11 (human)
  kinase still bound, per cent of control: 95%
ACVR1B (human)
  kinase still bound, per cent of control: 100%
PDGFRB (human)
  kinase still bound, per cent of control: 58%
SRPK2 (human)
  kinase still bound, per cent of control: 88%
BRAF (human)
  kinase still bound, per cent of control: 74%
NEK4 (human)
  kinase still bound, per cent of control: 94%
AURKA (human)
  kinase still bound, per cent of control: 75%
IKBKB (human)
  kinase still bound, per cent of control: 95%
PHKG1 (human)
  kinase still bound, per cent of control: 100%
NEK3 (human)
  kinase still bound, per cent of control: 65%
RET (human)
  kinase still bound, per cent of control: 96%
TBK1 (human)
  kinase still bound, per cent of control: 100%
AKT1 (human)
  kinase still bound, per cent of control: 100%
DAPK1 (human)
  kinase still bound, per cent of control: 100%
[2]
  kinase still bound, per cent of control: 87%
CSNK1D (human)
  kinase still bound, per cent of control: 57%
ALK (human)
  kinase still bound, per cent of control: 100%
CDK3 (human)
  kinase still bound, per cent of control: 92%
MAP3K15 (human)
  kinase still bound, per cent of control: 55%
GAK (human)
  kinase still bound, per cent of control: 83%
ACVR2A (human)
  kinase still bound, per cent of control: 95%
[3]
  kinase still bound, per cent of control: 93%
TTK (human)
  kinase still bound, per cent of control: 88%
EPHA5 (human)
  kinase still bound, per cent of control: 100%
RPS6KA1 KD2 (human)
  kinase still bound, per cent of control: 76%
CSNK1E (human)
  kinase still bound, per cent of control: 92%
TNK1 (human)
  kinase still bound, per cent of control: 91%
EPHA4 (human)
  kinase still bound, per cent of control: 91%
MAP3K13 (human)
  kinase still bound, per cent of control: 100%
EPHB4 (human)
  kinase still bound, per cent of control: 95%
RPS6KA6 KD1 (human)
  kinase still bound, per cent of control: 80%
TYRO3 (human)
  kinase still bound, per cent of control: 100%
TAOK2 (human)
  kinase still bound, per cent of control: 89%
NUAK1 (human)
  kinase still bound, per cent of control: 100%
PI4KB (human)
  IC50: > 10 µM
PIK3C3 (human)
  IC50: 3.39 µM
PRKDC (human)
  IC50: 0.0537 µM
